Data: US7462630B2, “Diarylalkene derivatives and novel diarylalkane derivatives” (Ajinomoto Co., Inc., priority 2001, dated 2008)

Experiments:
N-type calcium channel = target: T1, N-type calcium channel (Homo sapiens, UniProt Q00975); experiment: Antagonistic activity on N-type calcium channel (fluorescence dye method, KCl-stimulated intracellular calcium change in IMR-32 cells with 1 μM Nifedipine); type: cell-based; details: 10 μM test compound, 60 mM KCl stimulation, read-out: Antagonistic activity on N-type calcium channels at 10 μM inhibition rate (%)
T1 construct: host or cells: IMR-32 human neuroblastoma cells, differentiated with dibutyl cAMP and 5-bromodeoxyuridine
Method: Human neuroblastoma cells IMR-32 were obtained from ATCC (American Type Culture Collection). The medium used was a Phenol Red-free Eagle minimum essential medium containing earle's salts (GIBCO) supplemented with 2 mM of L-glutamine (GIBCO), 1 mM of sodium pyruvate (pH 6.5) (GIBCO), antibiotic/antimycotic mixture (GIBCO) and 10% fetal calf serum (Cell Culture Technologies). Three ml of 1×10^5 cells/ml IMR-32 cells were spread on the glass bottom of a dish (Iwaki Glsss Co., Ltd.) having a diameter of 35 mm which had been treated with poly-L-lysin (SIGMA) and collagen (COLLAGEN VITROGEN 100; Collagen Co.). After the culture for 1 day, 1 mM (final concentration) of dibutyl cAMP and 2.5 μM (final concentration) of 5-bromodeoxyuridine (SIGMA) were added. After the culture for additional 10 to 14 days, the cells were subjected to the activity determination.
The medium for IMR-32 cells thus prepared was replaced with 1 ml of Phenol Red-free Eale minimum essential medium (GIBCO) containing 2.5 μM fura-2/AM (Dojin Kagaku, Co.) and earle's salts supplement, and the incubation was conducted at 37° C. for 30 minutes. Then the medium was replaced with a recording medium (20 mM of HEPES-KOH, 115 mM of NaCl, 5.4 mM of KCl, 0.8 mM of MgCl2, 1.8 mM of CaCl2 and 13.8 mM of D-glucose). Antagonistic activity on N-type calcium channel was determined and analyzed using a fluorescence microscope (Nikon Corporation) and an image analysis device ARGUS 50 (Hamamatsu Photonics). In particular, a recording medium (20 mM of HEPES-KOH, 115 mM of NaCl, 5.4 mM of KCl, 0.8 mM of MgCl2, 1.8 mM of CaCl2 and 13.8 mM of D-glucose) containing 1 μM of Nifedipine was given to the cells by reflux by a Y-tube method for 2 minutes. Then a stimulating agent containing 60 mM of potassium chloride was rapidly given by the Y-tube method. The calcium concentration change in the cells in this step was shown as the N-type calcium channel activity. Then stimulating agents containing 60 mM of potassium chloride and 0.1, 1 or 10 μM of the test compound were successively and rapidly given to the cells by the Y-tube method to determine the change in the intracellular calcium concentration. The antagonistic activity on N-type calcium channel was calculated from the inhibition rate (%) at a concentration of 10 μM.

[1] = tested on: Sprague-Dawley (SD) rats, partial sciatic nerve ligation (Seltzer model); experiment: Analgesic effects on a neuropathic pain model (partial sciatic nerve ligation model, mechanical allodynia, von Frey filaments); type: in vivo, rat; details: one hour after administration
Method: The effect of compound A in improving mechanical allodynia was evaluated using the partial sciatic nerve ligation model (Seltzer model, Pain, 43: 205-218, 1990) which belongs to the neuropathic pain models. For detecting the mechanical allodynia, the sole of the right paw of each rat was stimulated with von Frey filaments, and the threshold of the reaction for the mechanical stimulation (50% threshold) was determined according to a method of Chaplan et al. (J. Neurosci. Methods, 53: 55-63, 1994). In this step, the stimulation of the sole of the paw with each filament was repeated 8 times at a rate of about twice a second.
About a half thickness of the right sciatic nerve of each 8 week-old male Sprague-Dawley (SD) rat, whose reaction threshold was determined before the nerve injury, was ligated with a surgical suture to partially injure the nerve according to a method of Seltzer et al. (Pain, 43: 205-218, 1990). Six days after the nerve injury, the reaction threshold of the right hindpaw was determined and compared with that determined before the nerve injury. Individuals having a threshold far lower than that determined before the nerve injury [i.e. rats showing mechanical allodynia] were selected for evaluating allodynia improving effect. Seven and 9 days after the nerve injury, the reaction threshold of the rats selected for the purpose of the evaluation was determined before compound administration. […] One hour after the administration, the reaction threshold of each rat was determined.
The effect of compound B in improving mechanical allodynia was evaluated using the partial sciatic nerve ligation model (Seltzer model, Pain, 43: 205-218, 1990) which belongs to the neuropathic pain models. […] Six days after the nerve injury, the reaction threshold of the right hindpaw was determined and was compared with that determined before the nerve injury. Individuals having a threshold far lower than that determined before the nerve injury [i.e. rats showing mechanical allodynia] were selected for evaluating allodynia improving effect. […]

T1 sequence (Q00975 whole entry): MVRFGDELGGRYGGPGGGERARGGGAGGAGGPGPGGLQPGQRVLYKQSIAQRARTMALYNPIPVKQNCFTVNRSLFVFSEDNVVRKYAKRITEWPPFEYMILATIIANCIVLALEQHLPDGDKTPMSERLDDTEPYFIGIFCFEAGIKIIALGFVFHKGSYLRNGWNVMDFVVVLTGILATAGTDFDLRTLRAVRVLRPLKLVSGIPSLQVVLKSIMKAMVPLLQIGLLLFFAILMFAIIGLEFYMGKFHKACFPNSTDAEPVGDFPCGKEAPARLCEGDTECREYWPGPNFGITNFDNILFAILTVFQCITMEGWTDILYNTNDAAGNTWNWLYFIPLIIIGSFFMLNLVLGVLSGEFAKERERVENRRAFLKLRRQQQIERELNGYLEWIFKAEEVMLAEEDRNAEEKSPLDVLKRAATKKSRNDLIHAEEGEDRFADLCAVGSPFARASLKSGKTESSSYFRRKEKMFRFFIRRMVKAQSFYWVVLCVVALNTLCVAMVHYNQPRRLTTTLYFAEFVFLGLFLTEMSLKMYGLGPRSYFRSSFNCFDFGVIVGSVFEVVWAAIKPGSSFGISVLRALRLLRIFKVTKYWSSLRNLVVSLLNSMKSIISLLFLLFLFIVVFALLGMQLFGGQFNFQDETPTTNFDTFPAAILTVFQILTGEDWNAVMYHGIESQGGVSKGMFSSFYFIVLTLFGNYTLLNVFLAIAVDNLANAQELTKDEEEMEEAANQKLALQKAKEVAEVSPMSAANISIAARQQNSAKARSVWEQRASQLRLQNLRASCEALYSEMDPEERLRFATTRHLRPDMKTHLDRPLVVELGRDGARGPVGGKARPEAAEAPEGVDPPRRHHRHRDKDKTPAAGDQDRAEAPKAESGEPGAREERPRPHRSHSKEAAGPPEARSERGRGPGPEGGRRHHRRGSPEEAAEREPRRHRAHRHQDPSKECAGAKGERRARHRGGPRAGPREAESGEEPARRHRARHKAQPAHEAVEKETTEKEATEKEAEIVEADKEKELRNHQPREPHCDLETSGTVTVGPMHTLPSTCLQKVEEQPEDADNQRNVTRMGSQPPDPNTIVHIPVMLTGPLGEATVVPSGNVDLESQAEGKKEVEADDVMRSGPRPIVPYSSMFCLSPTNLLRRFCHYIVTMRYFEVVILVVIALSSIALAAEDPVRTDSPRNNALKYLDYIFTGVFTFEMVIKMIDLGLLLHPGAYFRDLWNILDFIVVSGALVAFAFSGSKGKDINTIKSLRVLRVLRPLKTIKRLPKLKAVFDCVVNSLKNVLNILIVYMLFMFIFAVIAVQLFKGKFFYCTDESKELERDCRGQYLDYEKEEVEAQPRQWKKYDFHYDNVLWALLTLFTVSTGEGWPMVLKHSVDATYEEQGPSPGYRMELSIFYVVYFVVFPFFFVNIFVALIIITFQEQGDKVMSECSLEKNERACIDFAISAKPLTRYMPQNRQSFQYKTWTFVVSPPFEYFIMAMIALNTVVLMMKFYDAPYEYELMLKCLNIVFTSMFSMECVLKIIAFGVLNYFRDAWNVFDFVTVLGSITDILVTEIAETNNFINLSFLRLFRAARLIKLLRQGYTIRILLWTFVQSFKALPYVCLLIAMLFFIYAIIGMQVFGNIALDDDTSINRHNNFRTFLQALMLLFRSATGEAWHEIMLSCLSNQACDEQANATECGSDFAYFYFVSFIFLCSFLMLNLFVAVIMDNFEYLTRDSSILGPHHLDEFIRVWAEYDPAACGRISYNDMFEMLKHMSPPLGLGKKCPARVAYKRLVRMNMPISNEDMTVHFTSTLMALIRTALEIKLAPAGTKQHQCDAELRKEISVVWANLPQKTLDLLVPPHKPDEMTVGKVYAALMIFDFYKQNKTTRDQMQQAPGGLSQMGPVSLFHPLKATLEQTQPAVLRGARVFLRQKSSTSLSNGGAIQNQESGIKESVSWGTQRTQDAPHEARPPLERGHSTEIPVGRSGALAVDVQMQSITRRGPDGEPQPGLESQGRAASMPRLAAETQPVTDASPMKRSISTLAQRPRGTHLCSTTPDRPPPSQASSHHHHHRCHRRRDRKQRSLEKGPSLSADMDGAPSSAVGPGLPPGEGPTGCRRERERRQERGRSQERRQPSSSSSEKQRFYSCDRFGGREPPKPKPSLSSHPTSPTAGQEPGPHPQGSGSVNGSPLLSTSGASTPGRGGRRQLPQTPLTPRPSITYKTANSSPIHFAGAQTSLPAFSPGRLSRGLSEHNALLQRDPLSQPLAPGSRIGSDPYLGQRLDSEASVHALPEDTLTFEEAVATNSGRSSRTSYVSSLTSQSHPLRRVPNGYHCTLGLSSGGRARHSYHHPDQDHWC
T1 sequence (P54284 whole entry partner): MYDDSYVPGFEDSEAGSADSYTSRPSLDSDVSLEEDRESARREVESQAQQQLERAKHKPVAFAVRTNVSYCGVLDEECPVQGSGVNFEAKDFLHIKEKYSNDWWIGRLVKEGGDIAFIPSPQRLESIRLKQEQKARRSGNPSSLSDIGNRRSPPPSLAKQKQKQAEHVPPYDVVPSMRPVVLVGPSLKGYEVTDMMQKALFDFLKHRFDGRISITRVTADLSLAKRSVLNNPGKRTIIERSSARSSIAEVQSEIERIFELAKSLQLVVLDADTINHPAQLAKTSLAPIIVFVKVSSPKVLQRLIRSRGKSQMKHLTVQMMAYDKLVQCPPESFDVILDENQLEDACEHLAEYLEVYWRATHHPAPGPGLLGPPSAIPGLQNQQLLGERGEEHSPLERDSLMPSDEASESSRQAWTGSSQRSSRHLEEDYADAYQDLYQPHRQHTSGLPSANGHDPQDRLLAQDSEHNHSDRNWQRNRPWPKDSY
T1 sequence (P54289 25-956 partner limits assumed): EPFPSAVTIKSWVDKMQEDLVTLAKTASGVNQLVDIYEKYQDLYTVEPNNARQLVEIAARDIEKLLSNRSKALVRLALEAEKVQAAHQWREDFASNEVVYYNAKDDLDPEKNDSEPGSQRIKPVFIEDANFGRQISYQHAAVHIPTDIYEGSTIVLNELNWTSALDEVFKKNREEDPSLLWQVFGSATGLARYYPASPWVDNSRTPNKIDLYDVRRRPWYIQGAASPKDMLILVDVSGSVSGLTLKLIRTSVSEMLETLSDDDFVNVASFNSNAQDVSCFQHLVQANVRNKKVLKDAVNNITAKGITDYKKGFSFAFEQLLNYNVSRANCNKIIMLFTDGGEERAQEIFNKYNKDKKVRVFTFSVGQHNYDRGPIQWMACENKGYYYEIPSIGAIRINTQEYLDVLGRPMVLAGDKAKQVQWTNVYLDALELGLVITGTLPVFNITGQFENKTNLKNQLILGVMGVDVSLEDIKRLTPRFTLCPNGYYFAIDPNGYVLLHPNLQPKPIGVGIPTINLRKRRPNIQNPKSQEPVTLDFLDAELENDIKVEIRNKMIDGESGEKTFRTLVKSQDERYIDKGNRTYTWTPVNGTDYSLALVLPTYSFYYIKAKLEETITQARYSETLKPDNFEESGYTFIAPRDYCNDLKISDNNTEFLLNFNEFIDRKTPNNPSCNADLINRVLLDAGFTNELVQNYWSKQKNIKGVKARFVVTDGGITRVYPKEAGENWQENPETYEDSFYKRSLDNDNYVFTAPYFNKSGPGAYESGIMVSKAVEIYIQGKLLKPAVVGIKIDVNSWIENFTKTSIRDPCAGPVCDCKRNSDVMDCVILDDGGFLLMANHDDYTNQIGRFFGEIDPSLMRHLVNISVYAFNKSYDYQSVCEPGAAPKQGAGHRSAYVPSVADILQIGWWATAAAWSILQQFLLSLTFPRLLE
T1 sequence (P54289 957-1103 partner limits assumed): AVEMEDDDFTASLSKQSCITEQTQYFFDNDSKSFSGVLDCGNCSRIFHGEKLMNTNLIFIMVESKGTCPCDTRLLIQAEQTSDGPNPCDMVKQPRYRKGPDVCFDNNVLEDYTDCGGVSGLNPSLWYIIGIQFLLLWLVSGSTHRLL

inhibition at 10 µM (N-type calcium channel) [%]	SMILES	reaction threshold for mechanical stimulation (50% threshold) after the administration ([1]; 3 mg/kg oral in PEG)	reaction threshold for mechanical stimulation (50% threshold) after the administration ([1]; 100 mg/kg oral in PEG)	reaction threshold for mechanical stimulation (50% threshold) after the administration ([1]; 3 mg/kg oral in 0.5% tragacanth)
74	CC(C)(C)C(=O)N[C@H](CO)CCC(=O)N1CCC(=C2c3ccccc3C=Cc3ccccc32)CC1 [Example 71, (S)-N-[4-[4-(5H-dibenzo[a,d][7]annulen-5-ylidene)-1-piperidinyl]-1-(hydroxylmethyl)-4-oxobutyl]-2.2-dimethylpropanamide]	hardly changed	clearly increased	
77	CC(C)(C)C(=O)NCCC(=O)N1CCC(=C2c3ccccc3C=Cc3ccccc32)CC1 [Example 11, N-{3-[4-(5H-dibenzo[a,d][7]annulen-5-ylidene)-1-piperidinyl]-3-oxopropyl}-2,2-dimethylpropanamide]			increased
